Results taken from patent US7186413B2, “Hydrogels and water soluble polymeric carriers for drug delivery” (The Regents of the University of Michigan, priority 1998, dated 2007).

What was measured:
[1] = release of ionically bound or physically entrapped drugs and dyes from hydrogels; format: physicochemical
Description: Samples containing 9.8, 19.5, and 39.1 mg brilliant blue per gram of PAG either with or without calcium (which enhances gelling) were studied over a period of several weeks.

KB cells = assay: standard cytotoxicity assay with KB cells
Description: The activity of covalently bound daunomycin released from 6 wt % PAG gels was tested using KB cells in a standard cytotoxicity assay. Gels containing either zero, 13.3 or 30 mg of drug per gram of PAG were incubated in sterile media at 37° C. which was tested and replaced weekly.
The biocompatibility of PAG has been tested in vitro.
Sodium periodate, adipic dihydrazide, ethylene glycol, and calcium chloride were purchased from Aldrich Chemical Company (Milwaukee, Wis.) and were used as received. Daunomycin hydrochloride was purchased from Fluka Chemical Corporation (Ronkonkoma, N.Y.). Dulbecco's Modified Eagle's Medium (DMEM) was purchased from Life Technologies (Grand Island, N.Y.). […] The elution of the drug was monitored at 480 nm. • Synthesis of the poly(aldehyde guluronate), PAG. […] The product was analyzed by ^1H-NMR, FTIR, and the aldehyde content was quantified using trinitrobenzene sulfonic acid. • Preparation of cross-linked PAG hydrogels. […] To quantify the amount of daunomycin that is incorporated in the gels, two sets of hydrogels were formed as described above. […] The solutions were then sonicated for 30 minutes, quantitatively transferred to 5 ml volumetric flasks, and diluted with double distilled water. […]

[2] = in vitro release of daunomycin from cross-linked PAG hydrogels; format: physicochemical
[3] = determination of the drug incorporated (retained) in PAG hydrogel; format: physicochemical; conditions: lyophilized, crushed PAG hydrogel extracted with water
Description: The reaction described in Example 2 was utilized to incorporate daunomycin into hydrogels for localized drug delivery. HPLC was used to determine the amount of daunomycin that reacted with adipic dihydrazide before the addition of PAG. Mixtures of daunomycin and adipic dihydrazide were analyzed and found to contain 88.5% of the daunomycin-adipic dihydrazide conjugate and 11.5% of free drug (FIG. 21). The amount of daunomycin that was covalently incorporated into the hydrogel was next determined by quantifying the amount of free drug in the hydrogel. Hydrogels containing daunomycin or trypan blue were synthesized, frozen, lyophilized, and crushed to form powders. The free drug was then dissolved in water and the resulting mixture was filtered to remove any fine particles. The concentration of the free drug was then determined spectrophotometrically. […] Only two percent of the trypan blue was retained in the hydrogel. In comparison, 86.9±0.1% of daunomycin remained in the gelatinous particles. Moreover, hydrogels containing trypan blue that were incubated in DMEM released the entire drug within 24 hours. These findings clearly indicate that daunomycin is covalently coupled to the hydrogel through the adipic dihydrazide molecule. The daunomycin incorporation in the hydrogels correlates well with the percentage of daunomycin-adipic dihydrazide conjugate that was determined by HPLC analysis. […]

CN(Cc1cnc2nc(N)nc(N)c2n1)c1ccc(C(=O)N[C@@H](CCC(=O)O)C(=O)O)cc1 [Methotrexate]
time to quantitative release from the hydrogels ([1]; physically entrapped, diffusion, all conditions): ≤ 5 days

O=C1c2c(O)ccc(O)c2C(=O)c2c(NCCNCCO)ccc(NCCNCCO)c21 [Mitoxantrone]
cytotoxicity of drug alone versus mixed with AAD (prodrug formation, FIG. 9) (KB cells; mixed with AAD): not found to form a prodrug

COc1cccc2c1C(=O)c1c(O)c3c(c(O)c1C2=O)C[C@@](O)(C(C)=O)C[C@@H]3O[C@H]1C[C@H](N)[C@H](O)[C@H](C)O1 [daunomycin]
IC50 (KB cells; Homo sapiens, KB, 48 h): 202 ± 48 nM
drug released during the first six weeks ([2]; 6% w/w PAG, 150 mM AAD, 40 mM calcium): 40%
release rate of drug from hydrogel ([2]; 6% w/w PAG, 150 mM AAD, 40 mM calcium, first six weeks): 0.8 % drug per day
time to release of all incorporated drug ([2]; 6% w/w PAG, 150 mM AAD, absence of calcium): four
release rate of drug from hydrogel ([2]; 6% w/w PAG, 150 mM adipic dihydrazide, acidic medium): 1.8 % per day
release rate of drug from hydrogel ([2]; 6% w/w PAG, 150 mM adipic dihydrazide, neutral condition): 1 % per day
time to release of total incorporated drug ([2]; 6 wt % PAG, 8 mM daunomycin, 150 mM AAD): thirty
release rate of drug from hydrogel ([2]; 6 wt % PAG, 8 mM daunomycin, 150 mM AAD, first ten days, DMEM 37° C.): 1 % drug per day
release rate of drug from hydrogel ([2]; 6 wt % PAG, 8 mM daunomycin, 150 mM AAD, following twenty-two days): approximately 4 % per day
time to release of total drug loaded ([2]; 6 wt % PAG, 50 mM AAD cross-linker): two
time to release of total drug loaded ([2]; 6 wt % PAG, 100 mM AAD): two
time to release of total drug loaded ([2]; 6 wt % PAG, elevated AAD concentrations): more than six
fraction retained in the hydrogel particles [3]: 86.9±0.1%

Cc1cc(-c2ccc(/N=N/c3c(S(=O)(=O)O)cc4cc(S(=O)(=O)O)cc(N)c4c3O)c(C)c2)ccc1/N=N/c1c(S(=O)(=O)O)cc2cc(S(=O)(=O)O)cc(N)c2c1O [trypan blue]
time to release of the entire drug from hydrogel ([1]; PAG hydrogels incubated in DMEM): ≤ 24 h
fraction retained in the hydrogel particles [3]: two
